Data set [1] concerns the target ErbB2 with Exon 20 YVMA insertion (HER2-YVMA) (Homo sapiens (Human), UniProt P04626, INS775YVMA). Kind of data set: Cellular Phosphorylation Assay, Assay 4 (constitutive ErbB2 phosphorylation, NIH 3T3 cells). It counts as cell-based. Conditions: ErbB2 YVMA phosphorylation.
For data set [2], the target named is EGFR (Homo sapiens (Human), UniProt P00533). In words: ErbB Enzyme Assay (HTRF KinEASE-TK), Assay 3. It counts as biochemical. Conditions: EGFR enzyme.
Data set [3] has as its target BCRP (Homo sapiens (Human), UniProt Q9UNQ0). In words: BCRP MDCKII efflux assay (Assay 7). The class given is in vitro ADME. Conditions: dog; efflux ratio Papp(B-A)/Papp(A-B), BCRP MDCKII cells; read-out: Assay 7 Pe Ratio. The method, then:
Assay conditions included with and without the BCRP-specific inhibitor, KO143, at a concentration of 0.3 μM to ascertain the contribution of BCRP to the efflux value of the test compound.
Final organic concentration in the assay was 1%.

For data set [4], the target named is EGFR wild type (EGFR WT) (Homo sapiens (Human), UniProt P00533). In words: Cellular Phosphorylation Assay, Assay 5 (EGF-stimulated EGFR phosphorylation, NIH 3T3 cells). Conditions: EGF-stimulated EGFR WT phosphorylation. It counts as cell-based.
EGFR wild type (EGFR WT), sequence (P00533 25-1210): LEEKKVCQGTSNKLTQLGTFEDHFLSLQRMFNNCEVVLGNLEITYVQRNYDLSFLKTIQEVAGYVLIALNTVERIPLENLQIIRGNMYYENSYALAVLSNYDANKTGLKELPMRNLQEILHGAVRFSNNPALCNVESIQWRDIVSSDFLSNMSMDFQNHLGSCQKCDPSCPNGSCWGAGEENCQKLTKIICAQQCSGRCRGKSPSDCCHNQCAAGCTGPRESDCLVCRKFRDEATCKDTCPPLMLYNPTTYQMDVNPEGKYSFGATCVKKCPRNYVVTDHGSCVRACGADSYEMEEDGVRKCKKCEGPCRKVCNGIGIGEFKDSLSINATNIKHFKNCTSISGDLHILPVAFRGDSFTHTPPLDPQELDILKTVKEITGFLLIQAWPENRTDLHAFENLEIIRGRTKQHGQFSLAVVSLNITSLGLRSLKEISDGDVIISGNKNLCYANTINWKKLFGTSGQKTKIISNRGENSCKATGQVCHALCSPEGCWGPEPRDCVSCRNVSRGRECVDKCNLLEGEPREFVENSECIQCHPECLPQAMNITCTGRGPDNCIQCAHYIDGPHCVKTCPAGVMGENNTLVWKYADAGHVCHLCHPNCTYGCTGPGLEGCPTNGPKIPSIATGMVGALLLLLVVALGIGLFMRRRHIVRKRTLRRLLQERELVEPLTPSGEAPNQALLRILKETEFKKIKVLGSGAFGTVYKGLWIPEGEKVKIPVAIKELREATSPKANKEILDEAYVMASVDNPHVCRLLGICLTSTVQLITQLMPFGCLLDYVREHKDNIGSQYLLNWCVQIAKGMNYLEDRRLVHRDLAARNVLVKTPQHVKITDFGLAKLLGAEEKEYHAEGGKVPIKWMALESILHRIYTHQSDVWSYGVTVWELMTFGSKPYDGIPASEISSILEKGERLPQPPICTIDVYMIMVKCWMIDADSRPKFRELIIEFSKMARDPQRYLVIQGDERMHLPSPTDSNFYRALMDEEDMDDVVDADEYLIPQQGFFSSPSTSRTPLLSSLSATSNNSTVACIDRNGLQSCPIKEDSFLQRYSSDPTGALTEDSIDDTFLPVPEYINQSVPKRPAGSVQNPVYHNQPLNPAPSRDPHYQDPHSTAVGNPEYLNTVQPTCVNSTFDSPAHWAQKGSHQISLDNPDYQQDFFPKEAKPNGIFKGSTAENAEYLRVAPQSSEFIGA
Data set [5] has as its target MDR1 (P-gp) (Homo sapiens (Human), UniProt P08183). Kind of data set: in vitro. Conditions: pig, LLC-PK1.
For data set [6], the target named is ErbB2 WT (Homo sapiens (Human), UniProt P04626). In words: ErbB Enzyme Assay (HTRF KinEASE-TK), Assay 2. It counts as biochemical. Conditions: ErbB2 WT enzyme.
ErbB2 WT, sequence (P04626 23-1255): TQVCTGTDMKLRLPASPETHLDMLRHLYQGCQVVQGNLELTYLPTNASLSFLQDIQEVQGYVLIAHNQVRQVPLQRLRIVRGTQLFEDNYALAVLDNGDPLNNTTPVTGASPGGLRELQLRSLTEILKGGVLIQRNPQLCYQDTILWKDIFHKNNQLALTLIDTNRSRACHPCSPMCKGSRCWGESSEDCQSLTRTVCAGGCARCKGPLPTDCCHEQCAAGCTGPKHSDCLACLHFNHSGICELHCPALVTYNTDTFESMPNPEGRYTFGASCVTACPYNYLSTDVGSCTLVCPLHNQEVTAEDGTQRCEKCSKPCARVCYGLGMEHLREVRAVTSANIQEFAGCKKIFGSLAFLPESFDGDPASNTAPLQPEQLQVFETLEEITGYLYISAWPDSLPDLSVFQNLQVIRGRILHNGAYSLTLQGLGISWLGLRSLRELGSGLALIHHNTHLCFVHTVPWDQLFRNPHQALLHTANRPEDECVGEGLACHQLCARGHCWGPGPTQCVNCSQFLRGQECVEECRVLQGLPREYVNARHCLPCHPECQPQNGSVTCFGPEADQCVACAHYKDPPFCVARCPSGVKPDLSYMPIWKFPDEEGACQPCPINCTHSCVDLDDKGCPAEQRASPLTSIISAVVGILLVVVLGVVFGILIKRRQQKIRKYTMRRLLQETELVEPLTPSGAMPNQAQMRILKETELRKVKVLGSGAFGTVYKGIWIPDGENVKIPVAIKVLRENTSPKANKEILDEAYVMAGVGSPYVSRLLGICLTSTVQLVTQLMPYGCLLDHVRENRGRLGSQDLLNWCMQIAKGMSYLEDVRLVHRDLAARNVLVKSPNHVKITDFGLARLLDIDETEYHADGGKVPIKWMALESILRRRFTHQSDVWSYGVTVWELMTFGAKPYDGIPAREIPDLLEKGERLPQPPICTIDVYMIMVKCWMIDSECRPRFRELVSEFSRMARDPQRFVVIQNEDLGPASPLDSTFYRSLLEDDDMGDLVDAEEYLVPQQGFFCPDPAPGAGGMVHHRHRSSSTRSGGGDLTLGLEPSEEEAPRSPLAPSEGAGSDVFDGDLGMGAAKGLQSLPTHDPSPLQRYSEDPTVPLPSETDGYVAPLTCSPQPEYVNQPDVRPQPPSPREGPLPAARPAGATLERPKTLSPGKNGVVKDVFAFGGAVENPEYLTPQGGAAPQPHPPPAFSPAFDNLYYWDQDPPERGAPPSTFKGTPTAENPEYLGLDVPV

EGFR, sequence (P00533 25-1210): as the sequence (P00533 25-1210) above
MDR1 (P-gp), sequence (P08183 whole entry): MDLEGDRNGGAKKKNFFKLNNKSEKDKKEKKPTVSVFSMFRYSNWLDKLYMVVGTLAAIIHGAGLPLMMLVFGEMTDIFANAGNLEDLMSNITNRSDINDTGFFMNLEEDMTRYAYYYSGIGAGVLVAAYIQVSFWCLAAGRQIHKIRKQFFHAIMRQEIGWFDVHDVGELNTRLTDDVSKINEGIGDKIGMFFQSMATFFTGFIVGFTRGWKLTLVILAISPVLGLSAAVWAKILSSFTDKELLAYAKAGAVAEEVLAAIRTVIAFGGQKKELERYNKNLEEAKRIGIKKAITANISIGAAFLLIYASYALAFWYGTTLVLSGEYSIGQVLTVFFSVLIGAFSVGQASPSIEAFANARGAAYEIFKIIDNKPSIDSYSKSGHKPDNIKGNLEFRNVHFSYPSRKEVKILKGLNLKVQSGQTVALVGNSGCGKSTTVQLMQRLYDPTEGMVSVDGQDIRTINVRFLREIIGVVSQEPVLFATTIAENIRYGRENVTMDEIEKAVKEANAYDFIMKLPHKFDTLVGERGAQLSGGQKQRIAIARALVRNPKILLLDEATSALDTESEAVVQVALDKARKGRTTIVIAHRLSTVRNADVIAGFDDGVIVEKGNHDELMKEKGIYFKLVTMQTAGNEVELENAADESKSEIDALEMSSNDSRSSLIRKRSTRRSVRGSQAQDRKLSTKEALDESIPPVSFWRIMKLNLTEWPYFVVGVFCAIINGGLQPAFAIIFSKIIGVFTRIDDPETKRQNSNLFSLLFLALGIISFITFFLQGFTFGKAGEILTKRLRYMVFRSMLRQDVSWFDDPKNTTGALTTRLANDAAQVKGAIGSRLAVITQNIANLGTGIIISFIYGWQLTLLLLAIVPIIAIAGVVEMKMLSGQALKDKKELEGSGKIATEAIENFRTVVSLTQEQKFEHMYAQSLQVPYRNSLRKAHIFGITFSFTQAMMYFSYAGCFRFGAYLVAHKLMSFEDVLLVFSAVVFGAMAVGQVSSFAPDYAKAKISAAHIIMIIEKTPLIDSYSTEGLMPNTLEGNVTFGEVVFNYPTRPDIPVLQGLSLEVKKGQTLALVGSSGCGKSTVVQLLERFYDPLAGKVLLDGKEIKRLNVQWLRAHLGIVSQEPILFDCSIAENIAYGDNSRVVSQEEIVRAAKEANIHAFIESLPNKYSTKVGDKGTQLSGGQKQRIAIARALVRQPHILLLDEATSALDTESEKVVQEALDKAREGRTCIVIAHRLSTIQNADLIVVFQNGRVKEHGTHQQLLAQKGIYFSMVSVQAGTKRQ

Turning to `C=CC(=O)N1C[C@H]2C[C@@H]1CN(c1ccc3ncnc(Nc4ccc(Oc5ccc6c(c5)ncn6C)c(C)c4F)c3n1)C2` [Example 118, 1-((1S,5R)-3-(4-((2-fluoro-3-methyl-4-((1-methyl-1H-benzo[d]imidazol-5-yl)oxy)phenyl)amino)pyrido[3,2-d]pyrimidin-6-yl)-3,6-diazabicyclo[3.2.1]octan-6-yl)prop-2-en-1-one], the half-maximal inhibitory concentration (IC50) (as a rule, the concentration that gives 50% inhibition) was 10.1 nM in data set [1], 6090 nM in data set [2], at least 5000 nM in data set [4] and 54.1 nM in data set [6]. Also, the values for the efflux ratio at 2 h, 1 µM in data set [3] and in data set [5] were 4.1 and 2.2, respectively.
Consider `C=CC(=O)N1CCCC(c2ccc3ncnc(Nc4ccc(Oc5ccc6c(c5)ncn6C)c(C)c4)c3n2)CC1` (stereo not drawn) [Example 121, 1-(4-(4-((3-methyl-4-((1-methyl-1H-benzo[d]imidazol-5-yl)oxy)phenyl)amino)pyrido[3,2-d]pyrimidin-6-yl)azepan-1-yl)prop-2-en-1-one], for which the IC50 in data set [1] is 9.1 nM; in data set [2] it was 5570 nM; in data set [4], 4580 nM; in data set [6] it was 30.8 nM. The efflux ratio at 2 h, 1 µM amounted to 4 in data set [3] and 1.9 in data set [5].
For `C=CC(=O)N1CC(c2ccc3ncnc(Nc4ccc(Oc5ccc6c(c5)ncn6C)c(C)c4F)c3n2)CC1C` (stereo not drawn) [Example 124, 1-(4-(4-((2-fluoro-3-methyl-4-((1-methyl-1H-benzo[d]imidazol-5-yl)oxy)phenyl)amino)pyrido[3,2-d]pyrimidin-6-yl)-2-methylpyrrolidin-1-yl)prop-2-en-1-one], the IC50 in data set [1] is 11.4 nM; in data set [2] it was 3900 nM; in data set [4], 1940 nM; in data set [6], 29.9 nM. In addition, the efflux ratio at 2 h, 1 µM in data set [3] was determined as 5.2; in data set [5], 1.6.
On to `C=CC(=O)N1CCC(c2ccc3ncnc(Nc4ccc(Oc5ccc6c(c5)ncn6C)c(C)c4F)c3n2)CC1(C)C` (stereo not drawn) [Example 127, 1-(4-(4-((2-fluoro-3-methyl-4-((1-methyl-1H-benzo[d]imidazol-5-yl)oxy)phenyl)amino)pyrido[3,2-d]pyrimidin-6-yl)-2,2-dimethylpiperidin-1-yl)prop-2-en-1-one], for which the concentration for half-maximal inhibition (IC50) in data set [1] was 32.7 nM; in data set [2], at least 10000 nM; in data set [4] it was at least 5000 nM; in data set [6], 271 nM. Also, the values for the efflux ratio at 2 h, 1 µM in data set [3] and in data set [5] were 1.6 and 1.2, respectively.
In the case of `C=CC(=O)N1CCC(c2ccc3ncnc(Nc4ccc(Oc5ccc6c(c5)ncn6C)c(C)c4F)c3n2)CC12CC2` (stereo not drawn) [Example 128, 1-(7-(4-((2-fluoro-3-methyl-4-((1-methyl-1H-benzo[d]imidazol-5-yl)oxy)phenyl)amino)pyrido[3,2-d]pyrimidin-6-yl)-4-azaspiro[2.5]octan-4-yl)prop-2-en-1-one], the concentration for half-maximal inhibition (IC50) is 27.7 nM in data set [1], at least 10000 nM in data set [2], 2620 nM in data set [4] and 44.4 nM in data set [6]. In addition, the figures for the efflux ratio at 2 h, 1 µM in data set [3] and in data set [5] were 2.7 and 0.6, respectively.
For `C=CC(=O)N1C[C@H]2C[C@H](c3ccc4ncnc(Nc5cc(C)c(Oc6ccc7c(c6)ncn7C)cc5F)c4n3)C[C@H]2C1` [Example 136, 1-((3aR,5s,6aS)-5-(4-((2-fluoro-5-methyl-4-((1-methyl-1H-benzo[d]imidazol-5-yl)oxy)phenyl)amino)pyrido[3,2-d]pyrimidin-6-yl)hexahydrocyclopenta[c]pyrrol-2(1H)-yl)prop-2-en-1-one], the IC50 in data set [1] is 28.6 nM; in data set [2], at least 10000 nM; in data set [4], at least 5000 nM; in data set [6], 39.9 nM. Further, the efflux ratio at 2 h, 1 µM in data set [3] and in data set [5] was 1.7 each time.
`C=CC(=O)N1C[C@H]2C[C@H](c3ccc4ncnc(Nc5ccc(Oc6ccc7c(c6)ncn7C)c(C)c5F)c4n3)C[C@H]2C1` [Example 138, 1-((3aR,5s,6aS)-5-(4-((2-fluoro-3-methyl-4-((1-methyl-1H-benzo[d]imidazol-5-yl)oxy)phenyl)amino)pyrido[3,2-d]pyrimidin-6-yl)hexahydrocyclopenta[c]pyrrol-2(1H)-yl)prop-2-en-1-one]: the half-inhibitory concentration (IC50) in data set [1] was 25.1 nM; in data set [2], 4170 nM; in data set [4], at least 5000 nM; in data set [6] it was 22.1 nM. The efflux ratio at 2 h, 1 µM in data set [3] was 1.8; in data set [5], 6.8.
`C=CC(=O)N1CCN(c2ccc3ncnc(Nc4cc(C)c(Oc5ccn6ncnc6c5)cc4F)c3n2)C[C@H]1CC` [Example 164, (R)-1-(4-(4-((4-([1,2,4]triazolo[1,5-a]pyridin-7-yloxy)-2-fluoro-5-methylphenyl)amino)pyrido[3,2-d]pyrimidin-6-yl)-2-ethylpiperazin-1-yl)prop-2-en-1-one]: the IC50 is 14.7 nM in data set [1], at least 10000 nM in data set [2], 665 nM in data set [4] and 45.8 nM in data set [6]. Besides, the efflux ratio at 2 h, 1 µM worked out at 2.5 in data set [3] and 1.1 in data set [5].
Turning to `C=CC(=O)N1CCN(c2ccc3ncnc(Nc4ccc(Oc5cnc6c(c5)ncn6C)c(C)c4F)c3n2)C[C@H]1C1CC1` [Example 165, (R)-1-(2-cyclopropyl-4-(4-((2-fluoro-3-methyl-4-((3-methyl-3H-imidazo[4,5-b]pyridin-6-yl)oxy)phenyl)amino)pyrido[3,2-d]pyrimidin-6-yl)piperazin-1-yl)prop-2-en-1-one], the IC50 was 15.8 nM in data set [1], at least 10000 nM in data set [2], at least 5000 nM in data set [4] and 177 nM in data set [6]. Also, the efflux ratio at 2 h, 1 µM was 1.6 in data set [3] and 0.9 in data set [5].
For the compound `C=CC(=O)N1CCN(c2ccc3ncnc(Nc4ccc(Oc5cnc6c(c5)ncn6C)c(C)c4F)c3n2)C[C@@H]1C1CC1` [Example 167, (S)-1-(2-cyclopropyl-4-(4-((2-fluoro-3-methyl-4-((3-methyl-3H-imidazo[4,5-b]pyridin-6-yl)oxy)phenyl)amino)pyrido[3,2-d]pyrimidin-6-yl)piperazin-1-yl)prop-2-en-1-one], the concentration for half-maximal inhibition (IC50) is 25.1 nM in data set [1], at least 10000 nM in data set [2], at least 5000 nM in data set [4] and 519 nM in data set [6]. The efflux ratio at 2 h, 1 µM in data set [3] came out at 1.7; in data set [5] it was 0.9.
Turning to `C=CC(=O)N1C[C@H](c2ccc3ncnc(Nc4ccc(Oc5ccc6c(c5)ncn6C)c(C)c4F)c3n2)CC[C@H]1C` [Example 169, 1-((2R,5R)-5-(4-((2-fluoro-3-methyl-4-((1-methyl-1H-benzo[d]imidazol-5-yl)oxy)phenyl)amino)pyrido[3,2-d]pyrimidin-6-yl)-2-methylpiperidin-1-yl)prop-2-en-1-one], the concentration for half-maximal inhibition (IC50) in data set [1] is 23.6 nM; in data set [2] it was 1810 nM; in data set [4] it was at least 5000 nM; in data set [6], 111 nM. The results for the efflux ratio at 2 h, 1 µM in data set [3] and in data set [5] were 2.1 and 1, respectively.
Consider `C=CC(=O)N1C[C@H]2CC[C@@H]1CN2c1ccc2ncnc(Nc3ccc(Oc4ccn5ncnc5c4)c(C)c3F)c2n1` [Example 175, 1-((1R,4R)-5-(4-((4-([1,2,4]triazolo[1,5-a]pyridin-7-yloxy)-2-fluoro-3-methylphenyl)amino)pyrido[3,2-d]pyrimidin-6-yl)-2,5-diazabicyclo[2.2.2]octan-2-yl)prop-2-en-1-one], for which the IC50 came to 22.2 nM in data set [1], 5350 nM in data set [2], 2410 nM in data set [4] and 172 nM in data set [6]. For the same compound, the efflux ratio at 2 h, 1 µM in data set [3] turned out to be 4.8; in data set [5], 3.3.
For the compound `CC#CC(=O)N1CC[C@@H]2C[C@H]1CN2c1ccc2ncnc(Nc3ccc(Oc4ccn5ncnc5c4)c(C)c3F)c2n1` [Example 176, 1-((1 S,5R)-6-(4-((4-([1,2,4]triazolo[1,5-a]pyridin-7-yloxy)-2-fluoro-3-methylphenyl)amino)pyrido[3,2-d]pyrimidin-6-yl)-2,6-diazabicyclo[3.2.1]octan-2-yl)but-2-yn-1-one], the IC50 in data set [1] worked out at 24.4 nM; in data set [2], 6690 nM; in data set [4], 3620 nM; in data set [6] it was 48.5 nM. For the same compound, the efflux ratio at 2 h, 1 µM in data set [3] came out at 2.4; in data set [5] it was 1.
In the case of `C=CC(=O)N1CC[C@@H]2C[C@H]1CN2c1ccc2ncnc(Nc3cc(Cl)c(Oc4ccn5ncnc5c4)cc3F)c2n1` [Example 177, 1-((1 S,5R)-6-(4-((4-([1,2,4]triazolo[1,5-a]pyridin-7-yloxy)-5-chloro-2-fluorophenyl)amino)pyrido[3,2-d]pyrimidin-6-yl)-2,6-diazabicyclo[3.2.1]octan-2-yl)prop-2-en-1-one], the IC50 in data set [1] came to 5.7 nM; in data set [2], 129 nM; in data set [4] it was 156 nM; in data set [6], 9.7 nM. The efflux ratio at 2 h, 1 µM in data set [3] came out at 3.6; in data set [5] it was 1.9.
On to `C=CC(=O)N1C[C@@H](c2ccc3ncnc(Nc4ccc(Oc5ccc6c(c5)ncn6C)c(C)c4F)c3n2)C[C@@H]1C` [Example 191, 1-((2S,4S)-4-(4-((2-fluoro-3-methyl-4-((1-methyl-1H-benzo[d]imidazol-5-yl)oxy)phenyl)amino)pyrido[3,2-d]pyrimidin-6-yl)-2-methylpyrrolidin-1-yl)prop-2-en-1-one], for which the IC50 was 15 nM in data set [1], 1820 nM in data set [2], 2900 nM in data set [4] and 26.7 nM in data set [6]. Moreover, the efflux ratio at 2 h, 1 µM in data set [3] was 2.5; in data set [5] it was 0.9.

Values taken from patent US12447153B2, “HER2 mutation inhibitors” (Array BioPharma Inc., priority 2021, dated 2025).
